Measurements from patent US20130172324A1, “METHOD FOR TREATING CARDIOVASCULAR DISEASES USING RHO KINASE INHIBITOR COMPOUNDS” (priority 2008, published 2013).

How the values were obtained:
[1] = Rat oral pharmacokinetics (plasma); format: in vivo; conditions: rat, oral, 20-30 μmol/kg, plasma, mean of n = 3
Protocol: Plasma (EDTA K2 anticoagulant) was collected from male, cannulated, CD Sprague Dawley rats to determine the pharmacokinetics of formulations containing compound inhibitors of Rho kinase. Each animal was dosed orally with a 4 ml/kg solution or suspension of each test compound in 10 mM acetate buffered saline, pH 4.5 at a final concentration range of 20-30 μmol/kg. Blood was collected at 0.25, 0.5, 1, 2, 4, 6, 8, and 24 hours. Plasma samples were assayed for the concentration of the test compound using an on-line, solid phase extraction LC/MS/MS analysis system.
Samples were analyzed on a QSTAR Elite, hybrid quadrupole time-of-flight mass spectrometer (Applied Biosystems, Framingham, Mass.) coupled with a Symbiosis Pharma integrated, on-line SPE-HPLC system (Spark Holland Inc., Plainsboro, N.J.). Analyst QS 2.0 software was used for instrument control, data acquisition and processing. […] Mobile Phase A consisted of 0.1% ammonium hydroxide in water and Mobile Phase B consisted of 0.1% formic acid in acetonitrile. Pharmacokinetic analyses were performed using WinNonlin software version 5.2 (Pharsight Corporation, Mountain View, Calif.).
As determined from the plasma concentration versus time curves, the time to peak and peak exposure are represented by the values Tmax and Cmax, respectively. The AUC values (nM*hr) shown were calculated as the areas under the plasma concentration versus time curves from time zero through the time of the last observable value and represent the total exposure of the compound over the course of the study. Half-life values or the amount of time required for the plasma levels of the compound to decline to half the initial value are represented as t1/2.

rat trachea rings = assay: Tracheal relaxation assay (carbachol precontracted rings); conditions: for Percentage of carbachol-induced contraction at 10 μM compound, Avg %: 1 μM carbachol; for IC50: Rattus norvegicus, read-out: IC50 Avg;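 as to all read-outs here: isometric tension of rat tracheal rings in Krebs buffer with 1 µM indomethacin, compounds added cumulatively at 30 min intervals, basal tension subtracted, fit to Hill equation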
[2] = test system: A-10 rat thoracic aorta cells; assay: PDGF-stimulated smooth muscle cell proliferation assay (BrdU); format: cell-based; conditions: 10 μM compound, 10 ng/mL PDGF, A-10 cells, percent of total challenge-stimulated proliferation
Protocol: Effects on cell proliferation were measured using a bromodeoxyuridine (BrdU) incorporation assay. […] Serum free media containing 0.1% BSA was added to the cells. 24 hours later the media was removed and replaced with warmed serum free media. […] Proliferation was then monitored using the BrdU Cell Proliferation Assay, HTS (Calbiochem cat. #HTS01). BrdU was allowed to incorporate into cells for 24 hours prior to the addition of fixative/denaturing solution and the fluorometric detection of incorporated BrdU using a BrdU antibody as per manufacturer's directions. Data are reported as a percent of the PDGF-stimulated BrdU incorporation.

rat pulmonary artery = assay: Pulmonary arterial relaxation assay (norepinephrine precontracted rings)
Protocol: Pulmonary artery or aorta were excised, cleaned of connective tissue and cut into cylindrical segments of 2-3 mm length. The preparations were mounted in a tissue bath by tying two threads of surgical silk through the lumen of the vessel. One silk was used to anchor the tissue to a metal wire in the bath and the other silk was connected to a force transducer. […] Contractile tensions were measured using an isometric force transducer (Grass Instruments) and signals were analyzed using specialized software (Chart v5.5, ADInstruments). The preparations were allowed to equilibrate at a resting tension of 0.1 to 0.2 gm for pulmonary artery and 2.0 gm for aorta prior to two challenges with 80 mM KCl to assess tissue viability. After washing, tissues were treated with 100 nM norepinephrine for 5 to 10 minutes to induce a contractile response. For pulmonary artery, compounds were added cumulatively to the bath every 30 minutes and reductions in tension were recorded. Basal tension was subtracted from all values and data was reported as a percentage of the maximal norephinephrine-induced contraction. Data were fit to the Hill equation using GraphPad Prism v5 software. For aorta, a single dose of compound was added and reductions in tension were recorded.

rat aorta = assay: Aortal relaxation assay (norepinephrine precontracted rings); conditions: 100 μM compound, 100 nM norepinephrine; FIG. 4B
Protocol: This assay is a model for selecting compounds for treating diseases that involve constriction of arterial smooth muscle, such as atherosclerosis and systemic hypertension. The effects of compounds to induce relaxation of pre-contracted rat pulmonary artery and rat aorta were determined. […] Pulmonary artery or aorta were excised, cleaned of connective tissue and cut into cylindrical segments of 2-3 mm length. The preparations were mounted in a tissue bath by tying two threads of surgical silk through the lumen of the vessel. One silk was used to anchor the tissue to a metal wire in the bath and the other silk was connected to a force transducer. […] Contractile tensions were measured using an isometric force transducer (Grass Instruments) and signals were analyzed using specialized software (Chart v5.5, ADInstruments). The preparations were allowed to equilibrate at a resting tension of 0.1 to 0.2 gm for pulmonary artery and 2.0 gm for aorta prior to two challenges with 80 mM KCl to assess tissue viability. […] For pulmonary artery, compounds were added cumulatively to the bath every 30 minutes and reductions in tension were recorded. Basal tension was subtracted from all values and data was reported as a percentage of the maximal norephinephrine-induced contraction. […] For aorta, a single dose of compound was added and reductions in tension were recorded.

Compound | AUC (0-last) [1] | Cmax [1] | Tmax [1] | Vz_F [1] | t½ [1] | Percentage of carbachol-induced contraction at 10 μM compound, Avg % (rat trachea rings) | IC50 (rat trachea rings) | Percent of PDGF Induced Proliferation at 10 μM Avg [2] | relaxant response in precontracted pulmonary artery (rat pulmonary artery; 100 nM norepinephrine precontracted, FIG. 4A) | IC50 (rat pulmonary artery; Rattus norvegicus, read-out: IC50 for compound-induced relaxation) | norepinephrine-induced contractile response (tension) of aortal ring (rat aorta)
CSc1ccc(CN2CC[C@@H](Nc3cccc4cnccc34)C2)cc1 [Compound 2.026, (R)-N-(1-(4-(methylthio)benzyl)pyrrolidin-3-yl)isoquinolin-5-amine] | BLQ | BLQ | BLQ | BLQ | BLQ | 17.1% | 2860 nM | 52.0% |  |  | 
OCCOc1cccc(CN2CC[C@@H](Nc3cccc4cnccc34)C2)c1 [Compound 2.039, (R)-2-(3-((3-(isoquinolin-5-ylamino)pyrrolidin-1-yl)methyl)phenoxy)ethanol] |  |  |  |  |  | 6.2% | 343 nM |  | fully relaxed | 151 nM | fully reversed
